# Measurements: patent US4020111A, “Propynyloxy alkyl arene insecticides” (priority 1975, dated 1977)
# Several values for one entry are separate records, joined by “and”; a condition that tells them apart may be missing. Equal entries are not always repeated.
# Columns and labels:
# [1] = tested on: IN/WHO strain house flies; test: topical application test, percent kill after 24 hours, IN/WHO strain; type: in vivo, house fly (susceptible IN/WHO strain)
# Procedure, shortened: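 Susceptible female IN/WHO house flies, 3–5 days old, CO2-anesthetized, received synergist plus insecticide in acetone (1.0 μL) on the thorax; doses in μg/fly. Flies held 10 per dish, 3–5 dishes/treatment, with skim milk; mortality (percent kill) read at 24 h.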
# [2] = tested on: German male cockroaches (Blatella Germanicus); test: topical application to thorax, 24 hour mortality of German male cockroaches; type: in vivo, German cockroach (Blatella Germanicus)
# Experimental: The synergistic effect with mobam of synergist compounds I-B, II-H, II-K and IV-C is further illustrated by the 24 hour mortality data of German male cockroaches (Blatella Germanicus) shown in Table XXXX. The synergists and insecticide were diluted in acetone and applied in small droplets to the thorax of the insect. These doses of synergist alone gave zero percent insect mortality.
# The synergistic effect with GS 13005 of compounds I-B, II-H, II-K, II-P, II-Q, II-R and IV-C is illustrated by the 24 hour mortality of German male cockroaches shown in Table XXXXI. These doses of synergist alone caused zero percent insect mortality.
# [3] = tested on: polyvalent resistant (CH strain) houseflies; test: whole plant or invertebrate; type: in vivo, housefly (CH strain); conditions: for percent kill after 24 hours: CH strain
# Experimental: The effect of O-(2-propynyl) oximes with Dimetilan and with GS 13798 was obtained from tests on polyvalent resistant (CH strain) houseflies that had been chilled and to the dorsal region of which was applied an acetone solution of synergist and insecticide at a ratio of two to one. Duplicate tests were performed using 10 four to five-day old female houseflies per test. After dosage, the flies were put in a plastic petri dish with cotton soaked in a sugar-water solution. These doses of insecticide used without synergist caused 10-40% mortality.
# (§1) In Table IX, and in the tables following it, the doses of topically applied insecticides and of synergists unless otherwise noted are expressed as micrograms per fly (μg/fly).
# The effect of compounds II-C, II-D and II-E with Dimetilan and GS 13798 was determined, following the procedure of Example 5, from tests on polyvalent resistant (CH strain) houseflies. These doses of insecticide used without synergist caused 10-40% mortality.
# (§2) The synergistic effect with GS 13005 of compounds I-A, I-B, I-D, I-E, I-F, I-G and I-I was determined from topical application tests to IN/WHO strain, Rutgers A strain and polyvalent CH strain houseflies using the procedures of Example 5. The percent kills of the IN/WHO strain flies after 24 hours are shown in Table XXVIII; of the Rutgers A strain, in Table XXIX; and of the polyvalent CH strain, in Table XXX. The doses of insecticide alone to the CH strain files caused 10-40% mortality.
# (§3) The synergistic effect with Diazinon and GS 13005 of various of the benzyl 2-propynyl ethers identified in Tables II and IIa was determined by topical application tests on IN/WHO strain, and Rutgers A strain and polyvalent, resistant, CH strain houseflies using the procedures of Example 5. The percent kills after 24 hours of IN/WHO strain flies are shown in Table XXXI; of Rutgers A strain flies, in Table XXXII; and of CH strain flies, in Table XXXIII. The doses of insecticide alone to the CH strain flies caused 10-40% mortality.
# The synergistic effect with pyrethrum of various synergist compounds was determined by topical application tests on polyvalent, resistant CH strain houseflies following the procedure of Example 5. Application of the insecticide alone caused 10-40% mortality.
# mice [4] = test: synergism of acute toxicity of Dimetilan, GS 13005, Secobarbital and Methadone (intraperitoneal); type: in vivo, Swiss albino white male mice; conditions: for number of mice dead: 48 hours, of eight mice
# Procedure, shortened: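 Male Swiss albino mice (5–6 weeks, 23–27 g), eight per dose; synergist in corn oil given i.p. 1 h before i.p. insecticide or drug (drugs in distilled water). Lethality recorded over at least 6 h; controls received corn oil plus agent alone.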
# [5] = tested on: Rutgers A strain house flies; test: topical application test, percent kill after 24 hours, Rutgers A strain; type: in vivo, house fly (resistant Rutgers A strain)
# Experimental: as §1
# The synergistic effect of O-(2-propynyl) oximes with mobam was determined from topical application tests on susceptible, female, IN/WHO strain house flies and from tests on resistant, female, Rutgers A strain house flies. The synergist and insecticide were dissolved in ACS Grade acetone in such quantities that a 1.0μ liter volume applied to the thorax of 3-to-5 day old CO2 -anesthetized female adult house flies contained the desired dosage. After being treated, the flies were confined, 10 to a plaster petri dish, with 3-5 dishes/treatment, and held for 24-hr. observation of mortality. Reconstituted skim milk on cotton dental wicks was provided during the holding period. The percent kills after 24 hours are shown in Table X for the IN/WHO strain and Table XI for the Rutgers A strain.
# The synergistic effect of benzyl 2-propynyl ethers with mobam was determined from topical application tests on IN/WHO and Rutgers A strain houseflies, following the procedure of Example 5. The percent kills after 24 hours are shown in Table XIV for the IN/WHO strain and in Table XV for the Rutgers A strain.
# The synergistic effect with Diazinon of compounds I-B, I-D, I-F, I-G, I-H and I-I, identified in Tables I and Ia, was determined from topical application tests on IN/WHO strain houseflies and on Rutgers A strain houseflies by the procedure of Example 5. The percent kills after 24 hours are shown in Table XXV for the IN/WHO strain and Table XXVI for the Rutgers A strain.
# as §2, §3
# The synergistic effect on IN/WHO strain flies and Rutgers A strain flies of compound IV-C with GS 13005 and with Diazinon was determined by the topical application procedure of Example 5. The percent kills of IN/WHO strain flies after 24 hours are shown in Tables XXXVI and XXXVII; the percent kills of Rutgers A strain flies are shown in Tables XXXVIII and XXXIX.
# [6] = tested on: Wilson strain house flies; type: in vivo, house fly (susceptible Wilson strain)
# Procedure, shortened: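 Flies held at room temperature in glass jars coated with acetone-deposited insecticide film, alone or with synergist at 5:1 synergist:insecticide by weight; 10% sugar supplied.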
# houseflies = test: percent kill with Diazinon, Table XXVII (strain not given); type: in vivo, housefly; conditions: Diazinon 5 + synergist 10 μg/fly, 1440 min
# CH strain flies = test: spray application of pyrethrum, average percent knockdown with time; type: in vivo, housefly (CH strain); conditions: pyrethrum 100 + synergist 100 mg/cc
# Experimental: The average percent knockdown of CH strain flies, as a function of time, resulting from spray application of pyrethrum, alone and with synergists, are given in Table XXXXIII. Duplicate tests were performed using 50 CH strain houseflies per test. Test solutions of 100 mg and 200mg of pyrethrum per cc of acetone, 200 mg of synergist per cc of acetone, and a mixture of 100 mg of pyrethrum and 100 mg of synergist per cc of acetone were prepared. The fifty CH strain houseflies were put in a 40 liter spray chamber and 1 cc of the test solution was sprayed into the test chamber with a spray pistol. The synergists alone at 200 mg/cc caused no knockdown.
# mice [7] = test: extension of Secobarbital sleeping time by synergists; type: in vivo, Swiss albino white male mice; conditions: Secobarbital 37 mg/K; for Relative Sleeping Time: treated/control
# Procedure, shortened: (§4)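 Swiss albino male mice (~38 days, 25-30 g) given synergist at 74.0 or 110.0 mg/kg in corn oil 1 h before Secobarbital 37.0 mg/kg or Noludar 110.0 mg/kg in water. Sleeping time measured from drug dosing to righting-reflex recovery; relative sleeping time = treated ÷ drug-only control.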
# mice [8] = test: extension of Noludar sleeping time by synergists; type: in vivo, Swiss albino white male mice; conditions: Noludar 110 mg/K, synergist 110 mg/K
# Procedure, shortened: as §4
# [9] = GS 13005 1 + synergist 2 μg/fly
# [10] = Pyrethrum 2 + synergist 4 μg/fly
structure (smiles),measurement,setting,value
"COc1nn(CSP(=S)(OC)OC)c(=O)s1 [GS 13005, S-((2-methoxy-5-oxo-Δ^2-1,3,4-thiadiazolin-4-yl)methyl) O,O-dimethyl phosphorodithioate, reference compound]",percent kill after 24 hours,[1]; GS 13005 alone 0.05 μg/fly,0%
same,percent kill after 24 hours,"[1]; GS 13005 alone 0.10 μg/fly, 1440 min",19% and 16% and 12%
same,24 hour mortality,"[2]; GS 13005 alone, dose 0.08, 1440 min",15% and 23% and 10%
same,mortality at 1 µg/fly,"[3]; Musca domestica, topical, 24 h, read-out: mortality, insecticide alone",10 to 40%
same,mice lethality (number dead),mice [4]; control: GS 13005 71 mg/kg in 0.1 ml corn oil,5
same,percent kill after 24 hours,"[5]; GS 13005 alone 1.0 μg/fly, 1440 min",2%
C#CCON=Cc1ccc(OC)c(OC)c1 [I-A],"Contact Synergistic Ratio, Carbaryl (LC50 insecticide alone / LC50 with synergist)",[6]; in vivo,200
same,"Contact Synergistic Ratio, Pyrolan (LC50 insecticide alone / LC50 with synergist)","[6]; pyrolan, synergist to insecticide 5:1 by weight, 24 h",30
same,percent kill after 24 hours,[3]; Dimetilan 2 + synergist 4 μg/fly,100%
same,percent kill after 24 hours,[3]; [9],45%
same,percent kill after 24 hours,[3]; GS 13798 1 + synergist 2 μg/fly,65%
same,percent kill after 24 hours,[3]; [10],15%
same,percent kill,houseflies,45%
C#CCON=Cc1cccc2ccccc12 [I-I],average percent knockdown,CH strain flies; 5 min,4%
same,average percent knockdown,CH strain flies; 10 min,7%
same,average percent knockdown,CH strain flies; 15 min,19%
same,average percent knockdown,CH strain flies; 20 min,29%
same,average percent knockdown,CH strain flies; 25 min,40%
same,average percent knockdown,CH strain flies; 30 min,49%
same,average percent knockdown,CH strain flies; 40 min,57%
same,average percent knockdown,CH strain flies; 50 min,86%
same,average percent knockdown,CH strain flies; 60 min,92%
same,Mean Sleeping Time,mice [7]; synergist 74 mg/K,31 min
same,Relative Sleeping Time,mice [7]; synergist 74 mg/K,1.1
same,Mean Sleeping Time,mice [7]; synergist 110 mg/K,102 min
same,Relative Sleeping Time,mice [7]; synergist 110 mg/K,1.7
same,percent kill after 24 hours,[3]; [9],47%
same,percent kill after 24 hours,[3]; [10],52%
same,percent kill,houseflies,55%
same,Mean Sleeping Time,mice [8],62 min
same,Relative Sleeping Time,mice [8]; treated/control,2.1
same,number of mice dead,mice [4]; Dimetilan 8 mg/kg + synergist 80 mg/kg ip,0
same,number of mice dead,mice [4]; Dimetilan 8 mg/kg + synergist 240 mg/kg ip,3
"CNC(=O)Oc1cccc2sccc12 [Mobam, 4-benzo(b) thienyl-N-methylcarbamate, reference compound]",percent kill after 24 hours,[1]; Mobam alone 0.05 μg/fly,0%
same,percent kill after 24 hours,[1]; Mobam alone 0.10 μg/fly,zero
same,percent kill after 24 hours,"[1]; Mobam alone 0.10 μg/fly, 1440 min",0%
same,percent mortality 24 hours,[1]; Mobam alone 0.13 μg/fly,0%
same,percent kill after 24 hours,"[1]; Mobam alone 0.20 μg/fly, 1440 min",2%
same,percent mortality 24 hours,"[1]; Mobam alone 0.50 μg/fly, 1440 min",83%
same,percent mortality 24 hours,"[1]; Mobam alone 1.0 μg/fly, 1440 min",73% and 93%
same,change in lethality on doubling dose of mobam alone,[1]; mobam alone 0.05 to 0.10 mg/fly (so in the source),no increase in lethality
same,24 hour mortality,"[2]; Mobam alone, dose 0.12",10%
same,24 hour mortality,"[2]; Mobam alone, dose 0.16",30%
same,percent kill after 24 hours,[5]; Mobam alone 0.15 μg/fly,0%
same,percent kill after 24 hours,[5]; Mobam alone 0.30 μg/fly,0%
same,percent kill after 24 hours,[5]; Mobam alone 0.40 μg/fly,7%
same,percent kill after 24 hours,[5]; Mobam alone 0.60 μg/fly,4%
